# What was measured:
# [1] = target: T1, rat prostanoid IP receptor (Rattus norvegicus, UniProt P43253); assay: IP receptor activity assay: cyclic AMP accumulation (cAMP Flashplate) in CHO cells; type: cell-based; details: CHO cells expressing the rat prostanoid IP receptor
# T1 construct: expressed in transfected cells; host or cells: Chinese Hamster Ovary cells (kept under geneticin)
# Method: The IP receptor agonist potency of compounds of this invention in vitro was determined by measuring the agonist-mediated cyclic AMP accumulation in an assay utilizing Chinese Hamster Ovary cells expressing the rat prostanoid IP receptor. Cyclic AMP levels were determined using a commercially available Adenylate Cyclase cAMP Flashplate Assay.
# Chinese Hamster Ovary cells expressing the rat prostanoid IP receptor were maintained in Ham's Mixture with 10% fetal bovine serum, […] geneticin in 5% carbon dioxide ([…]). Cells were harvested at approximately 90% confluency using Dulbecco's Phosphate-Buffered saline containing 2 mM EDTA, and washed once at 1000×g and resuspended in Wash Buffer. A sample was aliquoted for protein determination. The cell suspension was centrifuged at 1000×g and adjusted to 110–140 E+3 cells/50 μl in the “Stimulation and Detection Buffer” from the assay kit.
# The test compounds or vehicle were incubated with 50 μl cells (110–140 E+3 cells) for 5 minutes at room temperature. After the incubation, 100 μl lysis/tracer solution was added to the wells and the radioactivity counted on a Packard Topcount microplate scintillation counter after overnight incubation. The amount of radioactive cAMP bound to the antibody is inversely proportional to the concentration of added non-radioactive cAMP. […]
# hERG potassium channel = target: T2, hERG potassium channel (Homo sapiens, UniProt Q12809); assay: hERG Potassium Channel Pharmacology Screening (whole-cell patch-clamp, CHO-K1 cells); type: cell-based; details: CHO-K1 cells expressing recombinant human hERG channel, read-out: hERG outward current inhibition percentage
# T2 construct: expressed in transfected cells; host or cells: CHO-K1 cells
# T2 sequence (Q12809 whole entry): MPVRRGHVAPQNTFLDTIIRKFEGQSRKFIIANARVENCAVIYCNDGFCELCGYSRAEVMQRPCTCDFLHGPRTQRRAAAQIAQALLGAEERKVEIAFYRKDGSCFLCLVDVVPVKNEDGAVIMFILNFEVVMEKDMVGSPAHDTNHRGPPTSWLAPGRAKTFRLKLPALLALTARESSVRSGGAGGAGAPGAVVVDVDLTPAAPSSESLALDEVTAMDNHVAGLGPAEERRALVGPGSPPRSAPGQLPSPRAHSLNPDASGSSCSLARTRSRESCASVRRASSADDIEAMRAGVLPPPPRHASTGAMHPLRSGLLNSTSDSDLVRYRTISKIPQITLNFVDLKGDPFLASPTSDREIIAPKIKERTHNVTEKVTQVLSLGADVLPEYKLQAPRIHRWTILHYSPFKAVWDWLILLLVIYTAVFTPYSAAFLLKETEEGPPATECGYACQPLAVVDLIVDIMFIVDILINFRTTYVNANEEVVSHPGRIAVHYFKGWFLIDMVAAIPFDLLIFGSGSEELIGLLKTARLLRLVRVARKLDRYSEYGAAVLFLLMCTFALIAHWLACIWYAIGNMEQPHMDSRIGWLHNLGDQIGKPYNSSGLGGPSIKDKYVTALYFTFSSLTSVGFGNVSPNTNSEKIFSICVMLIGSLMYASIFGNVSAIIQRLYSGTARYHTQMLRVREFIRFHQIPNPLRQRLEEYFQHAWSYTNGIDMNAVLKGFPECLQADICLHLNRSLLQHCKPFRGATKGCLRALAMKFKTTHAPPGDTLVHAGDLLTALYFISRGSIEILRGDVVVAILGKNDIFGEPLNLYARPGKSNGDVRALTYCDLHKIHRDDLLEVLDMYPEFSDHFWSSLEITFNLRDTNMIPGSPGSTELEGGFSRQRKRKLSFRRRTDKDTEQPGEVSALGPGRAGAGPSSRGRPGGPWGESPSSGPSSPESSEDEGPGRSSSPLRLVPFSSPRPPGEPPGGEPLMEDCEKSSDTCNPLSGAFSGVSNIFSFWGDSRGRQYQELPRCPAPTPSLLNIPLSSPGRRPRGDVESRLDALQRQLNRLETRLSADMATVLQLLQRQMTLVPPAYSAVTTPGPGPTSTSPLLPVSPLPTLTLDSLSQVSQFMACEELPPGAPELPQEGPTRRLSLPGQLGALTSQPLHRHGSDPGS
# Method: The effects of the subject compounds on recombinant hERG potassium channels expressed in CHO-K1 cells was determined according to the procedure reported by Hamill et al., 1981, Pflügers Arch., 391, 85–100
# The following solutions were used to isolate potassium currents in cultured cell lines: extracellular (in mM), NaCl (150), KCl (4), HEPES (10), CaCl2 (1.2), MgCl2 (1), adjusted to pH 7.4 with NaOH; intracellular (in mM), KCl (140), HEPES (10), EGTA (5), MgCl2 (6), ATP-Na2 (5), adjusted to pH 7.2 with KOH.
# Whole-cell patch-clamp methods were used to record potassium currents from CHO.K1 cells expressing the human hERG channel. Each cell was held at a negative holding potential of −80 mV. […] Peak tail current amplitudes at the different test potentials were measured to obtain the current-voltage relationship.
# A second protocol was used to investigate the effects of compounds on hERG currents. […] Drugs were applied once a stable baseline has been recorded for 5 min. […]
# Voltage-dependent potassium currents were recorded from single cells at room temperature (20–22° C.) using the whole-cell configuration of the patch-clamp technique. […]
# The peak amplitude of outward currents are measured using Clampfit software to find peak amplitude. […]
# Statistics were calculated using Microcal Origin and Prism software, and results were reported as mean+/−standard error of the mean. […]
# T1 sequence (P43253 whole entry): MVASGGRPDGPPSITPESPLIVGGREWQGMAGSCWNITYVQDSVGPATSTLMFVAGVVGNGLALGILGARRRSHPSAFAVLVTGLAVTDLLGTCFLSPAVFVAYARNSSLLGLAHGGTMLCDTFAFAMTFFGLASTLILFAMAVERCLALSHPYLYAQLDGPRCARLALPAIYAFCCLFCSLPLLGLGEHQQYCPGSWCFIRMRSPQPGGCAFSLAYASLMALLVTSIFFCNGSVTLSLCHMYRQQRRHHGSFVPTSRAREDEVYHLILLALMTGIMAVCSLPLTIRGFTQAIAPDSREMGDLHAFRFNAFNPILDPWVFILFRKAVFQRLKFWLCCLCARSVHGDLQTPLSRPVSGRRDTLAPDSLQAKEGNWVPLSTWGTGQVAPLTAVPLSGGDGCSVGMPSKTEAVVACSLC
compound,measurement,setting,value
"COc1ccc(C(=O)NCc2ccc(NC3=NCCN3)cc2)cc1 [compound 96, N-[4-(4,5-Dihydro-1H-imidazol-2-yl-amino)-benzyl]-4-methoxy-benzamide]",Ki,[1],~7.59 nM
same,inhibition at 1 µM,"hERG potassium channel; pH 7.4, at 1 uM",4.3 ± 4.4%
same,inhibition at 10 µM,"hERG potassium channel; pH 7.4, at 10 uM",10.8 ± 7.2%

# Reference: patent publication US7279498B2, “Substituted aryl amides as IP antagonists” (Roche Palo Alto LLC, priority 2003, dated 2007)
